The subject of assay [1] is HL-60. Put plainly: Cytotoxicity against human HL60 cells after 22 hrs by MTS assay. As to conditions: HL-60, 22 h. It is filed as functional, cell-based. (In general: Formazan colour is commonly taken as a measure of viable cells.)
For assay [2], the system named is HL-60. The assay is described as follows: Induction of apoptosis in human HL60 cells assessed as change in mitochondrial permeability at 250 nM after 24 hrs by DiOC6 staining-based flow cytometry (RVB = 90.3%). The assay is classed as functional.
The subject of assay [3] is HL-60. The assay is described as follows: Induction of apoptosis in human HL60 cells assessed as decrease in procaspase-3 level at 500 nM after 24 hrs by Western blot analysis. It is filed as functional, cell-based. A general note: Immunoblotting shows a protein as a band on a membrane.
Assay [4] deals with HL-60. Put plainly: Induction of apoptosis in human HL60 cells assessed as total apoptotic cells at 50 to 100 nM after 24 hrs by FITC-conjugated annexin V and propidium iodide staining-based flow cytometry. The assay is classed as functional. On the technique in general: A flow cytometer gives signals particle by particle.
Assay [5] concerns HL-60. The assay is described as follows: Induction of apoptosis in human HL60 cells assessed as early apoptotic cells at 500 to 1000 nM after 24 hrs by FITC-conjugated annexin V and propidium iodide staining-based flow cytometry. The assay is classed as functional.
The subject of assay [6] is HL-60. The assay is described as follows: Induction of apoptosis in human HL60 cells assessed as decrease in PARP level at 500 nM after 24 hrs by Western blot analysis. It is filed as functional, cell-based.
Assay [7] has as its system HeLa. The assay is described as follows: Cytotoxicity against human HeLa cells after 22 hrs by MTS assay. The assay is classed as functional, cell-based.
Assay [8] relates to HL-60. Put plainly: Induction of apoptosis in human HL60 cells assessed as decrease in Bid protein level at 500 nM after 24 hrs by Western blot analysis. The assay is classed as functional, cell-based.
Assay [9] deals with HL-60. The assay is described as follows: Induction of apoptosis in human HL60 cells assessed as early apoptotic cells at 50 nM after 24 hrs by FITC-conjugated annexin V and propidium iodide staining-based flow cytometry. It is filed as functional.
In assay [10] the test system is SK-MEL-28. The assay is described as follows: Cytotoxicity against human SK-MEL-28 cells after 22 hrs by MTS assay. The assay is classed as functional, cell-based. The note with it: SK-MEL-28, 22 h.
In assay [11] the test system is DLD-1. Put plainly: Cytotoxicity against human DLD1 cells after 22 hrs by MTS assay. As to conditions: DLD-1, 22 h. The assay is classed as functional, cell-based.
Assay [12] in a line: Inhibition of EGF-stimulated viability of mouse JB6 Cl41 cells after 22 hrs by MTS assay. The assay is classed as functional, cell-based. The note with it: JB6 Cl41, 22 h.
Assay [13] relates to HL-60. The assay is described as follows: Induction of apoptosis in human HL60 cells assessed as decrease in PARP level at 250 nM after 24 hrs by Western blot analysis. It is filed as functional, cell-based.
Assay [14] deals with MDA-MB-231. Put plainly: Cytotoxicity against human MDA-MB-231 cells after 22 hrs by MTS assay. The assay is classed as functional, cell-based. The note with it: MDA-MB-231, 22 h.
In assay [15] the test system is HL-60. Put plainly: Induction of apoptosis in human HL60 cells assessed as decrease in procaspase-8 level at 500 nM after 24 hrs by Western blot analysis. It is filed as functional, cell-based.
Assay [16] deals with THP-1. Put plainly: Cytotoxicity against human THP1 cells after 22 hrs by MTS assay. It is filed as functional, cell-based. As to conditions: THP-1, 22 h.
The test system of assay [17] is HL-60. Put plainly: Induction of apoptosis in human HL60 cells assessed as decrease in procaspase-9 level at 500 nM after 24 hrs by Western blot analysis. The assay is classed as functional, cell-based.
The subject of assay [18] is HL-60. Put plainly: Induction of apoptosis in human HL60 cells assessed as early apoptotic cells at 250 nM after 24 hrs by FITC-conjugated annexin V and propidium iodide staining-based flow cytometry. It is filed as functional.
Assay [19] has as its system HL-60. The assay is described as follows: Induction of apoptosis in human HL60 cells assessed as total apoptotic cells at 1000 nM after 24 hrs by FITC-conjugated annexin V and propidium iodide staining-based flow cytometry. The assay is classed as functional.
Assay [20] in a line: Cytotoxicity against human SNUC4 cells after 22 hrs by MTS assay. The assay is classed as functional, cell-based. As to conditions: SNU-C4, 22 h.

Activity calls are given as the source filed them. The calls are words filed in the database; no cut-off is given here.

Data on one compound can be found in ChEMBL document CHEMBL1165930, “The anticancer activity of 3- and 10-bromofascaplysins is mediated by caspase-8, -9, -3-dependent apoptosis” (Bioorg Med Chem, 2010).

By IC50 is commonly meant the midpoint of a concentration-inhibition curve. Turning to `O=C1c2ccccc2-[n+]2ccc3c([nH]c4cc(Br)ccc43)c21.[Cl-]`, the IC50 in assay [1] is 142 nM; in assay [7] it was 86 nM; in assay [10], more than 1000 nM; in [11], 118 nM; in [12], 144 nM; in [14] it was 173 nM. Further, the results for the IC50 in assay [16] and in assay [20] were 161 nM and 125 nM, respectively. Besides, the Activity in assay [2] is 60.1%; in [4], 20%; in [5], 20%; in [9], 5%; in assay [18], 40%; in [19] it was 90%. Further, the inhibition entry in [3], in assay [6], in assay [8], in assay [13], in [15] and in assay [17] was “Active” each time.
